Columns and labels:
[1] = biological target: T1, Melanin-concentrating hormone receptor 1 (Homo sapiens, UniProt Q99705); test: Concentration required to inhibit binding of [125I]MCH radioligand to human melanin-concentrating hormone receptor 1 in IMR-32 I3.4.2 cell membranes
[2] = Half life in plasma was determined at the peroral dose of 10 mg/kg in diet-induced obese (DIO) mice; assay type: ADME, organism-based; set-up: dose 10 mg/kg, route oral; conditions: mouse, po
[3] = Area under curve in brain was determined at the peroral dose of 10 mg/kg in diet-induced obese (DIO) mice; unit may be (ng.h/mL or ng. h/g); assay type: ADME, organism-based; set-up: dose 10 mg/kg, route oral; conditions: mouse, in vivo, po
[4] = Maximum concentration in plasma was determined at the peroral dose of 10 mg/kg in diet-induced obese (DIO) mice; unit may be (ng/mL or ng/g); assay type: ADME, organism-based; set-up: dose 10 mg/kg, route oral; conditions: mouse, po
[5] = Maximum concentration in brain was determined at the peroral dose of 10 mg/kg in diet-induced obese (DIO) mice; unit may be (ng/mL or ng/g); assay type: ADME, organism-based; set-up: dose 10 mg/kg, route oral; conditions: mouse, po
[6] = biological target: T1, Melanin-concentrating hormone receptor 1; test: Concentration required to inhibit 50% of melanin-concentrating hormone induced [Ca2+] flux in IMR-32 cells measured by using a fluorometric imaging plate reader; assay type: functional, cell-based
[7] = Area under curve in plasma was determined at the peroral dose of 10 mg/kg in diet-induced obese (DIO) mice; unit may be (ng.h/mL or ng. h/g); assay type: ADME, organism-based; set-up: dose 10 mg/kg, route oral; conditions: mouse, in vivo, po
[8] = Half life in brain was determined at the peroral dose of 10 mg/kg in diet-induced obese (DIO) mice; assay type: ADME, organism-based; set-up: dose 10 mg/kg, route oral; conditions: mouse, po

T1 sequence (Q99705 whole entry): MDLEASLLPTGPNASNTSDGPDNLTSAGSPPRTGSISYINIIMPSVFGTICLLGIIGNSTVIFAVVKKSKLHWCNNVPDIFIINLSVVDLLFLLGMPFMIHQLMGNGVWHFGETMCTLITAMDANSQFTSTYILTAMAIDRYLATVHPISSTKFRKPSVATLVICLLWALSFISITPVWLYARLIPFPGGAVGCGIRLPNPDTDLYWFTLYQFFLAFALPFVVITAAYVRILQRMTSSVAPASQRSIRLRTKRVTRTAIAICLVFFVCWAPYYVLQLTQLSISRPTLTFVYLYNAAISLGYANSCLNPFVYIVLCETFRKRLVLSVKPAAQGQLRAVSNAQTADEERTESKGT

| IC50 [1] | IC50 [6] | Compound | further results |
| --- | --- | --- | --- |
| > 2000 nM |  | COCCOCCOc1cccc2ccc(N)nc12 |  |
| 614 nM |  | CC(C)CCOc1cccc2ccc(N)nc12 |  |
| > 2000 nM |  | Nc1ccc2cccc(OC3CCCC3)c2n1 |  |
| 1070 nM |  | CCOCC(C)Oc1cccc2ccc(N)nc12 (stereo not drawn) |  |
| 349 nM |  | CC1CCC(Oc2cccc3ccc(N)nc23)CC1 (stereo not drawn) |  |
| 326 nM |  | CCC(CC)Oc1cccc2ccc(N)nc12 |  |
| 20 nM | 90 nM | CC(CC(C)(C)C)Oc1cccc2ccc(N)nc12 (single isomer, unassigned) | half-life [2]: 1.9 h; AUC [3]: 1030 ng·h/mL; Cmax [4]: 127 ng/mL; Cmax [5]: 595 ng/mL; AUC [7]: 247 ng·h/mL; half-life [8]: 2.3 h |
| 437 nM |  | CC(C)Oc1cccc2ccc(N)nc12 |  |
| > 2000 nM |  | COCCOc1cccc2ccc(N)nc12 |  |
| 310 nM | 6090 nM | CNc1ccc2cccc(OC(C)CC(C)(C)C)c2n1 (stereo not drawn) |  |
| 199 nM |  | CC(C)C(C)Oc1cccc2ccc(N)nc12 (stereo not drawn) |  |
| 789 nM |  | CCCCOc1cccc2ccc(N)nc12 |  |
| 580 nM |  | CCCCCOc1cccc2ccc(N)nc12 |  |
| 137 nM | 1730 nM | Nc1ccc2cccc(OCC3CC4CCC3C4)c2n1 (stereo not drawn) |  |
| > 2000 nM |  | CCC#CCOc1cccc2ccc(N)nc12 |  |
| 361 nM |  | Nc1ccc2cccc(OC3CCCCC3)c2n1 |  |
| 90 nM | 1680 nM | Nc1ccc2cccc(OCC3CCCCC3)c2n1 |  |
| 60 nM | 530 nM | CC(CC(C)(C)C)Oc1cccc2ccc(NCc3ccc(-c4ccccc4Cl)o3)nc12 (stereo not drawn) |  |
| 191 nM | 1300 nM | CCC(CC)C(C)Oc1cccc2ccc(N)nc12 (stereo not drawn) |  |

| IC50 [1] | IC50 [6] | Compound | further results |
| --- | --- | --- | --- |
| 53 nM | 2290 nM | Nc1ccc2cccc(OCC3CCCC3)c2n1 |  |
| 606 nM |  | COCC(C)Oc1cccc2ccc(N)nc12 (stereo not drawn) |  |
| > 2000 nM |  | Nc1ccc2cccc(OC3CCC3)c2n1 |  |
| 722 nM |  | Nc1ccc2cccc(OCCC(F)(F)F)c2n1 |  |
| 808 nM |  | Nc1ccc2cccc(OCCC3CCCCC3)c2n1 |  |
| 115 nM | 6240 nM | Nc1ccc2cccc(OCC3CCOC3)c2n1 (stereo not drawn) |  |
| 174 nM | 5310 nM | CCC(C)Oc1cccc2ccc(N)nc12 (stereo not drawn) |  |
| > 2000 nM | > 10000 nM | CC(CC(C)(C)C)Oc1cccc2cccnc12 (stereo not drawn) |  |
| > 2000 nM | > 10000 nM | CC(CC(C)(C)C)Oc1cccc2ccc(N3CCCCC3)nc12 (stereo not drawn) |  |
| > 2000 nM | > 10000 nM | CC(CC(C)(C)C)Oc1cccc2ccc(NCC3CC3)nc12 (stereo not drawn) |  |
| 105 nM | 860 nM | CCCC(C)Oc1cccc2ccc(N)nc12 (stereo not drawn) |  |
| > 2000 nM |  | CC(C)COc1cccc2ccc(N)nc12 |  |
| > 2000 nM |  | Nc1ccc2cccc(O)c2n1 |  |
| 137 nM | 3480 nM | Nc1ccc2cccc(OC3CCCCCC3)c2n1 |  |
| > 2000 nM |  | CC(C)=CCOc1cccc2ccc(N)nc12 |  |
| 492 nM |  | Nc1ccc2cccc(OCCC3CC3)c2n1 |  |
| 36 nM |  | CCC(C)COc1cccc2ccc(N)nc12 (stereo not drawn) |  |
| > 2000 nM |  | CC#CCCOc1cccc2ccc(N)nc12 |  |
| 1590 nM |  | COc1cccc2ccc(N)nc12 |  |

| IC50 [1] | IC50 [6] | Compound | further results |
| --- | --- | --- | --- |
| 41 nM | 211 nM | CC(CC(C)(C)C)Oc1cccc2ccc(N)nc12 (stereo in doubt; 19) |  |
| > 2000 nM | > 10000 nM | CC(CC(C)(C)C)Oc1cccc2ccc(N3CCCC3)nc12 (stereo not drawn) |  |
| 32 nM | 1330 nM | CC1CCCCC1Oc1cccc2ccc(N)nc12 (stereo not drawn) |  |
| 818 nM |  | CCCCCCOc1cccc2ccc(N)nc12 |  |
| 1100 nM |  | CCCOc1cccc2ccc(N)nc12 |  |
| 201 nM |  | CC(C)(C)CCOc1cccc2ccc(N)nc12 |  |
| 306 nM |  | CC(COC(C)(C)C)Oc1cccc2ccc(N)nc12 (stereo not drawn) |  |
| 132 nM | 4670 nM | COC(C)(C)CCOc1cccc2ccc(N)nc12 |  |
| > 2000 nM |  | Nc1ccc2cccc(OCC3CC3)c2n1 |  |
| > 2000 nM |  | CC(C)OCCOc1cccc2ccc(N)nc12 |  |
| > 2000 nM |  | Nc1ccc2cccc(OCC3CCCO3)c2n1 (stereo not drawn) |  |
| > 2000 nM |  | CCOCCOc1cccc2ccc(N)nc12 |  |
| > 2000 nM | > 10000 nM | CC(CC(C)(C)C)Oc1cccc2ccc(N(C)C)nc12 (stereo not drawn) |  |
| 432 nM |  | Nc1ccc2cccc(OCC3CCC3)c2n1 |  |
| > 2000 nM |  | CSCCOc1cccc2ccc(N)nc12 |  |
| 550 nM | 4510 nM | CC(CC(C)(C)C)Oc1cccc2ccc(N)nc12 (single isomer, unassigned; (+)) |  |
| 1640 nM |  | CC1CC1COc1cccc2ccc(N)nc12 (stereo not drawn) |  |
| 823 nM |  | CC1CCC(Oc2cccc3ccc(N)nc23)C1 (stereo not drawn) |  |
| 640 nM |  | CC1CCCC(Oc2cccc3ccc(N)nc23)C1 (stereo not drawn) |  |

Reference: ChEMBL document CHEMBL1137102, “Synthesis and evaluation of 2-amino-8-alkoxy quinolines as MCHr1 antagonists. Part 1” (Bioorg Med Chem Lett, 2004)
